The text below walks through data of patent publication US20180235936A1, “CANCER TREATMENT METHODS” (University of Notre Dame du Lac, priority 2017, published 2018).

“Also recorded” adds a separate entry of the source.

For one test, the system named is Snai1 mRNA. Nature of the test: Snai1 expression by RT-PCR in AsPC1 cells co-cultured with GW4869-treated CAFs. The note with it: exosome secretion from PCAFs inhibited by GW4869. The format is cell-based, human. The method, then:
(§1) (FIG. 8A) AsPC1 cells were grown for 5 days in AsPC1-conditioned media (AsPC1/AsPC1), CAF1-conditioned media (CAF1/AsPC1) or CAF1-conditioned media depleted of exosomes (CAF1-ED/AsPC1) and then treated with 111M GEM for 3 days and live cells were counted. (FIG. 8B) CAF1s were treated with 20 gm GW4869 or DMSO along with 111M gemcitabine or PBS for 3 days. Exosomes in media were collected, dyed with CFSE, and quantified. (FIG. 8C) AsPC1 cells were co-cultured with AsPC1 cells, CAFs, GW4869-treated CAF1s, DMEM alone (Blank/AsPC1), or GW4869 in DMEM (Blank+GW4869) for 6 days then treated during co-culture with 111M gemcitabine for 3 days. Live co-cultured AsPC1 cells at the bottom of the plate were counted. (FIG. 8D) Snai1 expression was measured via RT-PCR in AsPC1 cells co-cultured with untreated CAFs (CAF-NT/AsPC1) or GW4869-treated CAFs (CAF-GW/AsPC1). (FIG. 8E) L3.6 cells were cultured in CAF1-conditioned (CAF1/L3.6) media or CAF1-conditioned media depleted of exosomes (CAF1-ED/L3.6). miR146a expression was measured via RT-PCR. **p-value<0.01.

The subject of test [1] is pancreatic cancer epithelial cells. Nature of the test: Direct GW4869 treatment of pancreatic cancer epithelial cells followed by gemcitabine; percent live cells (trypan blue). The note with it: GW4869 for one day then gemcitabine for three days; vs DMSO. The test is classed as cell-based, human. Set-up: dose or concentration left out as unconfirmed. The text has this: FIG. 19 illustrates a graph of the results from pancreatic cancer epithelial cells being treated with DMSO as a control or 2011M GW4869 for one day then treated with gemcitabine for three days. Live and dead cells were quantified using an automated cell counter and trypan blue staining. Percent live cells was quantified.

Test [2] relates to pancreatic epithelial cancer cells (AsPC1) co-cultured with CAFs. Nature of the test: Co-culture of pancreatic epithelial cancer cells with GW4869-treated CAFs, then gemcitabine; live cell count. The following applies: GW4869-treated CAFs (20 μM), gemcitabine for three days during co-culture. The format is cell-based, human. The method, then: as §1
The bottom co-cultured epithelial cells were then treated with gemcitabine for three days during co-culture. Live co-cultured epithelial cells at the bottom of the plate were quantified using an automated cell counter. *p-value<0.05; **p-value <0.01. NS (not significant).

The test system of a further test is microRNA-92a. In words: microRNA-92a expression by RT-PCR in AsPC1 cells co-cultured with GW4869-treated CAFs. The following applies: PCAFs treated with GW4869 vs DMSO. The test is classed as cell-based, human. The source says: FIG. 17A illustrates a graph of the results from pancreatic cancer epithelial cells (AsPC1) grown in PCAF-conditioned media; the cells expressed higher levels of microRNA-92a compared to control media, as established via RTPCR.

Test [3] relates to pancreatic cancer-associated fibroblasts (CAF1). In words: Exosome release from CAF1s treated with GW4869, exosomes dyed with CFSE and quantified. The test is classed as cell-based, human. The note with it: CAFs; FIG. 8B / FIG. 12. The method, then:
as §1

Test [4] has as its system AsPC1 cells and CAF1 cells tumors. In words: Subcutaneous AsPC1 + CAF1 tumor growth in NOD/SCID mice. The format is in vivo. The note with it: intraperitoneally twice weekly for two weeks. How it is done:
FIGS. 10A-B illustrate graphs of NOD/SCID mice that were subcutaneously implanted with one million AsPC1 cells and 200,000 CAF1 cells. Two weeks post implantation mice were treated intraperitoneally with DMSO+PBS, DMSO+gemcitabine (GEM), or PBS+GW4869 twice weekly for two weeks. (FIG. 10A) Tumor growth over the course of the ten-day post drug treatment. (FIG. 10B) Change in tumor volume from first day of drug treatment to 10 days post initial drug treatment. *p-value<0.05. NS (not significant).
Additionally, it should be appreciated that dosages can be determined as described herein. In one embodiment, the dosage of pharmaceutical composition depends on the drug itself, its efficacy, and its toxicity. As an exemplary embodiment, 2-2.5 gg GW4869 per gram mouse body weight can be intraperitoneally injected into mice twice weekly for two weeks to achieve therapeutic results.

The subject of test [5] is pancreatic cancer epithelial cells. Nature of the test: Scratch migration assay of pancreatic cancer epithelial cells. The format is cell-based, human. More on the design: dose or concentration left out as unconfirmed. The following applies: GW4869, serum-free media, three days; vs DMSO. The text has this: FIG. 20 illustrates a graph of the results from pancreatic cancer epithelial cells being grown to full confluency and placed in serum-free media to prevent cell proliferation. A scratch was made down to center of the plate to create a cell free zone for migration. Cells were then given DMSO as a control or 2011M GW4869. Images were taken each day for three days and distance of cell migration was quantified using ImageJ.

In another test the test system is PTEN. In words: PTEN expression by RT-PCR in tumors extracted from treated NOD/SCID mice. The format is in vivo. The following applies: intraperitoneally twice weekly for two weeks; compared to control. The method, then:
FIG. 16 illustrates a graph of the results from NOD/SCID mice being subcutaneously implanted with one million AsPC1 cells and 200,000 CAF1 cells. Two weeks post implantation mice were treated intraperitoneally with DMSO+PBS, DMSO+gemcitabine, PBS+GW4869, or gemcitabine+GW4869 twice weekly for two weeks. Tumors were extracted for RNA and PTEN expression within tumor samples was quantified via RT-PCR.

In test [6] the test system is pancreatic ductal adenocarcinoma (PDAC). The following applies: adjuvant gemcitabine, observed cohort; cited from earlier work.
The test system of test [7] is PCAF extracellular vesicle microRNAs. Nature of the test: MicroRNA-Seq of extracellular vesicles from gemcitabine-treated versus PBS-treated PCAFs. The test is classed as cell-based, human. The note with it: normalized to total RNA. The source says: While Snai1 and miR-146a may play an important role in promoting chemoresistance of PECCs, other potential mechanisms exist in which PCAF exosomes may increase chemoresistance. For example, by treating PCAFs with PBS as a control or gemcitabine, collecting their secreted extracellular vesicles, lysing them, collecting the microRNA within, and quantifying the microRNAs, the role of microRNAs is made clearer. […] [table]

Another test has as its system Snai1 and miR-146a. In words: RT-PCR of Snai1 and miR-146a in CAF1s and CAF1 exosomes during gemcitabine treatment. The format is cell-based, human. The method, then: (FIG. 11A) RT-PCR. miR-146a and Snai1 levels were altered in CAF1s during 1 μM GEM treatment (GT) (3 days) compared to untreated control (NT). (FIG. 11B) RT-PCR. CAF1s were treated with Snai1-siRNA, and Snai1 and miR-146a expression was measured compared to negative siRNA control treated CAFs. (FIG. 11C) Exosomes from untreated and 1 μM GEM-treated CAF1s were isolated and Snai1 mRNA and miR-146a within CAF1 exosomes was quantified via RT-PCR using relative Ct values. (FIG. 11D-E) L3.6 cells were treated with GT-CAF1 exosomes for 6 days (GTCAF1/L3.6) or left untreated (L3.6 control). AsPC1 cells were treated with GT-CAF1 exosomes for 6 days (GT-CAF1/AsPC1) or left untreated (AsPC1 control). Snai1 (FIG. 11D) and miR-146a (FIG. 11E) levels were quantified in recipient cells via RT-PCR. *p-value<0.05; **p-value<0.01.

Test [8] has as its system pancreatic cancer-associated fibroblasts (CAF1). Nature of the test: Exosome secretion from cells during chemotherapy treatment, exosomes isolated from conditioned media and quantified. The format is cell-based, human. The note with it: most prominently from PCAFs; 4 days treatment; vs untreated. How it is done: (FIG. 4A) CAF1s were left untreated (NT) or treated with 111M gem (GT) for 4 days. Exosomes were isolated from conditioned cell media, and protein lysates were used to perform a western blot for CD81 and beta-actin (left). Isolated exosomes were examined for size and structure via transmission electron microscopy (right). (FIG. 4B) CAF1 cells transduced with a GFP-CD63 lentivirus (GFP-CD63-CAF1s) were treated with luM gemcitabine (GT) or left untreated (NT) and fluorescence was analyzed via microscopy. (FIG. 4C) Total corrected cell fluorescence of GFP-CD63-CAF1 cells was quantified using ImageJ. (FIG. 4D) Cells were treated with 11.1M gemcitabine (Fibroblasts and PANC1), 10 nM gemcitabine (L3.6), or left untreated for 4 days (NT), and exosomes were collected and quantified. Scale bar, 200 Em. *pvalue<0.05; **p-value<0.01.
FIG. 5 illustrates a graph of fold change in exosome secretion per cell. CAF1 cells were plated at 500,000 cells/flask and left untreated (control), treated with 111M gemcitabine, or 10 nM Nab-Paclitaxel for 4 days. Live cells were counted. Exosomes were isolated from conditioned-media and quantified. *p-value<0.05;**p-value<0.01.

The mark [9] stands for this setting: 1 μM GEM treatment (3 days) vs untreated.

As for `O=C(/C=C/c1ccc(/C=C/C(=O)Nc2ccc(C3=NCCN3)cc2)cc1)Nc1ccc(C2=NCCN2)cc1` [GW4869], the “cellular level of Snai1 mRNA within co-cultured PECCs” value in the test with Snai1 mRNA was “decreased”. Besides, in test [1], the “chemoresistance of PECCs treated directly” value is “reduced chemoresistance”. The “chemoresistance of co-cultured PECCs” value in [2] was “reduced the chemoresistance”. Moreover, the “expression of miR-92a within co-cultured PECCs” value in the test with microRNA-92a is listed as “reduced expression; also recorded: decreased”. Also, in test [3], the exosome release entry is recorded as “suppresses exosome release”. For the same molecule, the tumor growth entry in [4] is “reduced tumor growth”. Further, the “cell migration of PECCs” value in test [5] is recorded as “reduced cell migration”.
Consider `Nc1ccn([C@@H]2O[C@H](CO)[C@@H](O)C2(F)F)c(=O)n1` [gemcitabine], for which the “PTEN expression within the tumors” value with PTEN is reported as “decreased”. Further, the “patients eventually showing tumor recurrence” value in test [6] was 74%. Also, in test [7], the “Fold Change (GEM vs. NT) of hsa-m1R-221-3p in extracellular vesicles” value was 4.325, the “Fold Change (GEM vs. NT) of hsa-miR-21-5p in extracellular vesicles” value came to 2.531, the “Fold Change (GEM vs. NT) of hsa-miR-92a-3p in extracellular vesicles” value turned out to be 4.66 and the “Fold Change (GEM vs. NT) of hsa-miR-181a-5p in extracellular vesicles” value is given as 3.509. Also, in [7], the “Fold Change (GEM vs. NT) of hsa-miR-222-3p in extracellular vesicles” value amounted to 2.649. Further, in the test with Snai1 and miR-146a (setting [9]), the “Snai1 level in CAFs” value is “upregulation” and the “miR-146a level in CAFs” value is given as “upregulation”. In addition, in the test with Snai1 and miR-146a (1 μM GEM-treated vs untreated), the “level of Snai1 mRNA in exosomes secreted from PCAFs” value was “higher” and the “level of miR-146a in exosomes secreted from PCAFs” value is reported as “higher”. Besides, the “secretion of exosomes from cells” value in test [8] was “increases secretion of exosomes”.
